Where a name gives a salt, the structure may show the parent alone.

The assay deals with CK2A1 (CK2α/β) (Homo sapiens, UniProt P68400). The assay can be described thus: CK2 kinase assay, CK2A1 (CK2α/β). It is filed as biochemical. Particulars: Table A; read-out: CK2A1 (CK2α/β) (IC50).
CK2A1 (CK2α/β), sequence (P68400 whole entry, species assumed): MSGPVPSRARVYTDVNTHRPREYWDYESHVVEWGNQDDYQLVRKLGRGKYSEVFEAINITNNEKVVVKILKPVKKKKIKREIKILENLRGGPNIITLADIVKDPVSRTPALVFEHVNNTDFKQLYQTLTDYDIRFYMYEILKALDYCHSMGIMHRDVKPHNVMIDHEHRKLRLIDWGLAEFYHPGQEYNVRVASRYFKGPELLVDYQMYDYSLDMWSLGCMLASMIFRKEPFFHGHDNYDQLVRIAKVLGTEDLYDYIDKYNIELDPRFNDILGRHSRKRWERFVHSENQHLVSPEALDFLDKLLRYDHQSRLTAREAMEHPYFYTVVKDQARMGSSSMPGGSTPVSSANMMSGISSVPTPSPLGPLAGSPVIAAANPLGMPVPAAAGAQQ
CK2A1 (CK2α/β), sequence (P67870 whole entry partner, species assumed): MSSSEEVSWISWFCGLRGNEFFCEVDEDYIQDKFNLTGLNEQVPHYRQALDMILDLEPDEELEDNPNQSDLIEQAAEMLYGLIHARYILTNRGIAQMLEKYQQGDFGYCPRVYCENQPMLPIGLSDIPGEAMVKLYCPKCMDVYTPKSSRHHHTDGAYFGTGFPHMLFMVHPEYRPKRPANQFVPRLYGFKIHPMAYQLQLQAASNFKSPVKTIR
As for `CCNc1nc(Nc2cc(C#N)cc(N3CC[C@@H](NC(=O)OC)[C@H](O)C3)c2F)nn2c(C#N)cnc12` [Example 381, methyl ((3R,4R)-1-(5-cyano-3-((7-cyano-4-(ethylamino)imidazo[2,1-f][1,2,4]triazin-2-yl)amino)-2-fluorophenyl)-3-hydroxypiperidin-4-yl)carbamate], the IC50 came out at 0.53 nM.

Take `CCNc1nc(Nc2cc(C#N)cc(N3CC(N4CCN(C)CC4)C3)c2F)nn2c(C#N)cnc12` [Example 383, 2-((5-cyano-2-fluoro-3-(3-(4-methylpiperazin-1-yl)azetidin-1-yl)phenyl)amino)-4-(ethylamino)imidazo[2,1-f][1,2,4]triazine-7-carbonitrile]: the IC50 stood at 0.77 nM.

`N#Cc1cc(Nc2nc(NC3CC3)c3ncc(C#N)n3n2)c(F)c(C2CCN(C3COC3)CC2)c1` [Example 384, 2-((5-cyano-2-fluoro-3-(1-(oxetan-3-yl)piperidin-4-yl)phenyl)amino)-4-(cyclopropylamino)imidazo[2,1-f][1,2,4]triazine-7-carbonitrile]: the IC50 was found to be 0.43 nM.

`COC(=O)Nc1cc(Nc2nc(NC3CC3)c3ncc(C#N)n3n2)c(F)c(N2CCN(C)CC2)c1` [Example 385, methyl (3-((7-cyano-4-(cyclopropylamino)imidazo[2,1-f][1,2,4]triazin-2-yl)amino)-4-fluoro-5-(4-methylpiperazin-1-yl)phenyl)carbamate]: the IC50 amounted to 2.22 nM.

For `CCNc1nc(Nc2cc(NC(=O)OC)cc(N3CCN(C)CC3)c2F)nn2c(C#N)cnc12` [Example 386, methyl (3-((7-cyano-4-(ethylamino)imidazo[2,1-f][1,2,4]triazin-2-yl)amino)-4-fluoro-5-(4-methylpiperazin-1-yl)phenyl)carbamate], the IC50 stood at 5.79 nM.

Regarding `COC(=O)N[C@H]1CCN(c2cc(C(N)=O)cc(Nc3nc(NC4CC4)c4ncc(C#N)n4n3)c2Cl)C[C@@H]1O` [Example 388, methyl ((3S,4S)-1-(5-carbamoyl-2-chloro-3-((7-cyano-4-(cyclopropylamino)imidazo[2,1-f][1,2,4]triazin-2-yl)amino)phenyl)-3-hydroxypiperidin-4-yl)carbamate], the IC50 is 5.13 nM.

With `C[C@@H](O)Cn1nc(C#N)c2cc(Nc3nc(NC4CC4)c4ncc(C#N)n4n3)ccc21` [Example 393, (R)-2-((3-cyano-1-(2-hydroxypropyl)-1H-indazol-5-yl)amino)-4-(cyclopropylamino)imidazo[2,1-f][1,2,4]triazine-7-carbonitrile, HCl], the IC50 is 0.43 nM.

As for `COC(=O)Nc1cc(Nc2nc(NC3CC3)c3ncc(C#N)n3n2)c(Cl)c(C2CCN(C)CC2)c1` [Example 397, Methyl-4-chloro-3-(7-cyano-4-(cyclopropylamino)imidazo[1,2-f][1,2,4]triazin-2-ylamino)-5-(1-methylpiperidin-4-yl)phenylcarbamate], the IC50 is 1.8 nM.

As for `CCNc1nc(Nc2cc(NC(=O)OC)cc(C3CCN(C)CC3)c2Cl)nn2c(C#N)cnc12` [Example 398, methyl (4-chloro-3-((7-cyano-4-(ethylamino)imidazo[2,1-f][1,2,4]triazin-2-yl)amino)-5-(1-methylpiperidin-4-yl)phenyl)carbamate], the IC50 came to 3.3 nM.

As to `N#Cc1cc(C=O)c(Cl)c(Nc2nc(NC3CC3)c3ncc(C#N)n3n2)c1` [Example 400, 2-((2-chloro-5-cyano-3-formylphenyl)amino)-4-(cyclopropylamino)imidazo[2,1-f][1,2,4]triazine-7-carbonitrile], the IC50 was 0.49 nM.

Consider `CS(=O)(=O)N1CCN(Cc2cc(C#N)cc(Nc3nc(NC4CC4)c4ncc(C#N)n4n3)c2Cl)CC1` [Example 401, 2-((2-chloro-5-cyano-3-((4-(methylsulfonyl)piperazin-1-yl)methyl)phenyl)amino)-4-(cyclopropylamino)imidazo[2,1-f][1,2,4]triazine-7-carbonitrile], for which the IC50 turned out to be 0.38 nM.

As to `N#Cc1cc(CN2CCN(C3COC3)CC2)c(Cl)c(Nc2nc(NC3CC3)c3ncc(C#N)n3n2)c1` [Example 403, 2-((2-chloro-5-cyano-3-((4-(oxetan-3-yl)piperazin-1-yl)methyl)phenyl)amino)-4-(cyclopropylamino)imidazo[2,1-f][1,2,4]triazine-7-carbonitrile HCl salt], the IC50 is 0.69 nM.

With `N#Cc1cc(CN2CCOCC2)c(Cl)c(Nc2nc(NC3CC3)c3ncc(C#N)n3n2)c1` [Example 404, 2-((2-chloro-5-cyano-3-(morpholinomethyl)phenyl)amino)-4-(cyclopropylamino)imidazo[2,1-f][1,2,4]triazine-7-carbonitrile], the IC50 worked out at 0.54 nM.

Consider `CN1CCN(C2CN(c3cc(OC(F)F)cc(Nc4nc(NC5CC5)c5ncc(C#N)n5n4)c3Cl)C2)CC1` [Example 405, 2-((2-chloro-5-(difluoromethoxy)-3-(3-(4-methylpiperazin-1-yl)azetidin-1-yl)phenyl)amino)-4-(cyclopropylamino)imidazo[2,1-f][1,2,4]triazine-7-carbonitrile], for which the IC50 came out at 0.48 nM.

Take `N#Cc1cnc2c(NC3CC3)nc(Nc3cc(OC(F)F)cc(N4CCOCC4)c3Cl)nn12` [Example 406, 2-(2-chloro-5-(difluoromethoxy)-3-morpholinophenylamino)-4-(cyclopropylamino)imidazo[1,2-f][1,2,4]triazine-7-carbonitrile]: the IC50 turned out to be 2.12 nM.

As for `N#Cc1cnc2c(NC3CC3)nc(Nc3cc(C(F)F)cc(C4CCN(C5COC5)CC4)c3Cl)nn12` [Example 407, 2-((2-chloro-5-(difluoromethyl)-3-(1-(3-oxetanyl)-4-piperidinyl)phenyl)amino)-4-(cyclopropylamino)imidazo[2,1-f][1,2,4]triazine-7-carbonitrile], the IC50 worked out at 1.76 nM.

As to `N#Cc1cc(Nc2nc(NC3CC3)c3ncc(C#N)n3n2)c(Cl)cc1NC1CCNCC1` [Example 410, 2-((2-chloro-5-cyano-4-(piperidin-4-ylamino)phenyl)amino)-4-(cyclopropylamino)imidazo[2,1-f][1,2,4]triazine-7-carbonitrile], the IC50 is 0.68 nM.

As to `N#Cc1cc(Nc2nc(NC3CC3)c3ncc(C#N)n3n2)c(Cl)cc1NC1CCN(C2COC2)CC1` [Example 411, 2-((2-chloro-5-cyano-4-((1-(oxetan-3-yl)piperidin-4-yl)amino)phenyl)amino)-4-(cyclopropylamino)imidazo[2,1-f][1,2,4]triazine-7-carbonitrile], the IC50 worked out at 0.76 nM.

Turning to `CN(CCN)c1cc(Cl)c(Nc2nc(NC3CC3)c3ncc(C#N)n3n2)cc1C#N` [Example 412, 2-((4-((2-aminoethyl)(methyl)amino)-2-chloro-5-cyanophenyl)amino)-4-(cyclopropylamino)imidazo[2,1-f][1,2,4]triazine-7-carbonitrile], the IC50 is 0.43 nM.

`CN(CCNC1COC1)c1cc(Cl)c(Nc2nc(NC3CC3)c3ncc(C#N)n3n2)cc1C#N` [Example 413, 2-((2-chloro-5-cyano-4-(methyl(2-(oxetan-3-ylamino)ethyl)amino)phenyl)amino)-4-(cyclopropylamino)imidazo[2,1-f][1,2,4]triazine-7-carbonitrile]: the IC50 turned out to be 0.39 nM.

As to `N#Cc1cc(Nc2nc(NC3CC3)c3ncc(C#N)n3n2)c(F)cc1F` [Example 414, 2-((5-cyano-2,4-difluorophenyl)amino)-4-(cyclopropylamino)imidazo[2,1-f][1,2,4]triazine-7-carbonitrile], the IC50 turned out to be 0.99 nM.
